Results reported in patent publication US7238723B2, “Indole derivatives” (Pfizer Inc., priority 2003, dated 2007).
Structures can show the parent of a compound that is named as a salt.

Experiments:
[1] = 4 weeks at 40° C. and 90% relative humidity; cited from earlier work
[2] = on further processing; cited from earlier work
[3] = Moisture sorption by Dynamic Vapour Sorption (DVS); assay type: physicochemical; settings: 30° C.
Protocol: The moisture sorption of eletriptan hydrobromide monohydrate was determined using a Dynamic Vapour Sorption (DVS) Automated Sorption Analyser Model DVS-1 instrument manufactured by Surface Measurements Systems Ltd., UK.
Approximately 25 mg of eletriptan hydrobromide monohydrate was accurately weighed into a sample pan. This was exposed to humidities in the range of from 0 to 90% RH. The analysis was carried out in detail in the range of from 0 to 15% RH, using 15% RH steps in the range of from 15 to 90% RH. The analysis temperature was 30° C. with a nitrogen flow rate of 200 cm^3min^−1.
Once the monohydrate has formed there is very little additional moisture sorbed and within the range 10 to 90% RH less than 0.3% w/w of water is sorbed.

[4] = Storage stability of the drug substance, HPLC analysis; assay type: physicochemical; settings: double polyethylene bags inside a fibreboard drum
Protocol: • 1) Eletriptan hydrobromide monohydrate was stored in double polyethylene bags inside a fibreboard drum under the following conditions: • 25° C./60% RH for 9 months • 30° C./60% RH for 9 months • 40° C./75% RH for 6 months • (RH=relative humidity)

| Compound | water absorbed on standing [1] [% by weight] | stability of the solid form [2] | hygroscopicity ([3]; 0 to 90% RH) | hydrate state ([3]; above 6% RH) | water lost (water of the monohydrate) ([3]; at 0% RH) [% w/w] | water sorbed ([3]; within the range 10 to 90% RH) | degradation on storage (HPLC) ([4]; 25° C./60% RH for 9 months) | degradation on storage (HPLC) ([4]; 30° C./60% RH for 9 months) | degradation on storage (HPLC) ([4]; 40° C./75% RH for 6 months) |
| --- | --- | --- | --- | --- | --- | --- | --- | --- | --- |
| Br.CN1CCC[C@@H]1Cc1c[nH]c2ccc(CCS(=O)(=O)c3ccccc3)cc12 [anhydrous eletriptan hydrobromide] | ≤ 1.23 | unstable and to undergo polymorphic conversion to the alpha-form | – | – | – | – | – | – | – |
| CN1CCC[C@@H]1Cc1c[nH]c2ccc(CCS(=O)(=O)c3ccccc3)cc12 [eletriptan hydrobromide monohydrate] | – | – | essentially non-hygroscopic | remains as a monohydrate | 3.8 | less than 0.3 % w/w | no degradation had occurred | no degradation had occurred | no degradation had occurred |
